Key:
Format in all cases: cell-based, human
[1] = system: CD8+ T cells; experiment: gene expression in stimulated CD8+ T cells by q-RT-PCR (FIGS. 9-10); settings: for expression of LAG3, TIM3 and CTLA4: FIG. 9; for GZMB expression (effector function of CD8+ T cells): FIG. 10
Experimental: (§1) Naïve CD4+CD45RA+ T cells were isolated from healthy human PBMCs using Miltenyi Biotec naïve human T cell isolation kit (cat#130-094-131). Isolated cells were cultured at 10e6 cells/ml under iTreg-differentiation conditions using Dynabeads (Invitrogen; cat#11132D) at 1:1 ratio of beads to cells+human recombinant IL-2 (10 ng/ml) (R&D, cat#202-IL-010)+human recombinant TGFb (10 ng/ml) (Invitrogen; cat# PHG9204). After 16 hours the CBP inhibitors CBP/EP300(3) and CBP/EP300(4) were added using DMSO as control. CD8+ T cells were isolated from healthy human PBMCs using Militenyi Biotec human CD8 T cell isolation kit (cat#130-095-236) and cultured at 10e6 cells/ml with human T activator Dynabeads at 1:1 ratio of cells to cells with the addition of 10 ng/ml of recombinant human IL-2. 3 days after CD8+ T cell stimulation supernatants were collected and analyzed for CD8+ T cell associated effector function cytokines IFNg and TNFα by Luminex. Data in FIG. 10 show IFNγ (A) and TNFα (B) (pg/ml) secreted in the supernatants of CD8+ T cells stimulated with compounds CBP/EP300(3) and CBP/EP300(4), using DMSO as control.
3 days after CD8+ T cell stimulation mRNA was extracted using mRNA Catcher™ PLUS Purification Kit (Invitrogen; K1570-02). Gene expression of Lag3, CTLA4 and TIM3, genes encoding inhibitory receptors on the surface of CD8+ T cells and under the transcriptional control of CBP/p300, was analyzed by q-RT-PCR. Foxp3 expression and Granzyme B (GZMB) expression, a gene encoding effector function of CD8+ T cells, were also analyzed by q-RT-PCR. Beta-2-microglobulin (B2M) was used as house-keeping gene.

[2] = system: iTreg cells; experiment: Foxp3 protein expression in iTreg cells by flow cytometry (FIG. 8); settings: 4 days after stimulation
Experimental: as §1, with “Data in FIG. 10 show IFNγ (A) and TNFα (B) (pg/ml) secreted in the supernatants of CD8+ T cells stimulated with compounds CBP/EP300(3) and CBP/EP300(4), using DMSO as control.” left out
Cells from iTreg cultures were first stained with CD4 APC-CY7 and CD25 Pacific blue (both from BD pharmigen, cat#557811 and 560355, respectively); this was followed by fixation/permeabilization step and staining for intracellular Foxp3 FITC using human Foxp3 staining kit (eBioscience; cat#77-5774-40) according to the manufacturer protocol. FOXP3 expression by FACS was typically measured 4 d post-activation.

[3] = system: iTreg cells; experiment: Foxp3 expression in iTreg differentiating cells by q-RT-PCR (FIG. 7)
Experimental: as §1, with “Data in FIG. 10 show IFNγ (A) and TNFα (B) (pg/ml) secreted in the supernatants of CD8+ T cells stimulated with compounds CBP/EP300(3) and CBP/EP300(4), using DMSO as control.” left out
3 days after CD8+ T cell stimulation mRNA was extracted using mRNA Catcher™ PLUS Purification Kit (Invitrogen; K1570-02). Gene expression of Lag3, CTLA4 and TIM3, genes encoding inhibitory receptors on the surface of CD8+ T cells and under the transcriptional control of CBP/p300, was analyzed by q-RT-PCR. Foxp3 expression and Granzyme B (GZMB) expression, a gene encoding effector function of CD8+ T cells, were also analyzed by q-RT-PCR. […]

[4] = system: CD8+ T cells; experiment: IFNγ and TNFα in supernatants of stimulated CD8+ T cells by Luminex; settings: supernatants 3 days after stimulation
Experimental: as §1

Structure (SMILES) | expression of LAG3, TIM3 and CTLA4 [1] | GZMB expression (effector function of CD8+ T cells) [1] | Foxp3 protein expression [2] | Foxp3 expression, fold change over unstimulated naïve T cells [3] | cytokine production (IFNγ, TNFα) by CD8+ T cells [4]
C[C@H]1Nc2c(cccc2C(=O)NCCCN2CCOc3ccccc32)NC1=O [CBP/EP300(3)] | dose-dependent reduction in the expression of LAG3, TIM3 and CTLA4 | did not affect effector function of CD8+ T cells | decrease Foxp3 protein expression in iTreg cells | decrease Foxp3 expression in iTreg cells in a dose dependent manner | minimally affect
COc1ccc2c(c1)N(CCCNC(=O)c1cccc3c1N[C@H](C)C(=O)N3)CCC2 [CBP/EP300(4)] | dose-dependent reduction in the expression of LAG3, TIM3 and CTLA4 | did not affect effector function of CD8+ T cells | decrease Foxp3 protein expression in iTreg cells | decrease Foxp3 expression in iTreg cells in a dose dependent manner | minimally affect

From patent US20160317632A1, “USE OF CBP/EP300 BROMODOMAIN INHIBITORS FOR CANCER IMMUNOTHERAPY” (GENENTECH, INC., priority 2013, published 2016)
